Columns and labels:
[1] = Cytotoxicity in human HepG2.215 cells assessed as reduction in cell viability after 5 days by CCK8 assay; format: cell-based, HepG2 2.2.15; conditions: HepG2.2.15 cells
[2] = tested on: Hepatitis B virus; experiment: Antiviral activity against telbivudine-resistant hepatitis B virus harboring reverse transcriptase M204I mutant infected in human Huh7 cells assessed as reduction in intracellular DNA levels measured on day 7 by real-time PCR analysis; format: functional, organism-based; conditions: Huh-7, 168 h
[3] = tested on: Hepatitis B virus; experiment: Antiviral activity against telbivudine-resistant hepatitis B virus harboring reverse transcriptase L180M/M204V double mutant infected in human Huh7 cells assessed as reduction in intracellular DNA levels measured on day 7 by real-time PCR analysis; format: functional, organism-based; conditions: Huh-7, 168 h
[4] = tested on: Hepatitis B virus; experiment: Antiviral activity against telbivudine-resistant hepatitis B virus harboring reverse transcriptase M204I mutant infected in human Huh7 cells assessed as reduction in secreted DNA levels measured on day 7 by real-time PCR analysis; format: functional, organism-based; conditions: Huh-7, 168 h
[5] = tested on: Hepatitis B virus; experiment: Antiviral activity against telbivudine-resistant hepatitis B virus harboring reverse transcriptase L180M/M204V double mutant infected in human Huh7 cells assessed as reduction in secreted DNA levels measured on day 7 by real-time PCR analysis; format: functional, organism-based; conditions: Huh-7, 168 h
[6] = tested on: Hepatitis B virus; experiment: Antiviral activity against telbivudine-resistant wild type hepatitis B virus infected in human Huh7 cells assessed as reduction in secreted DNA levels measured on day 7 by real-time PCR analysis; format: functional, organism-based; conditions: Huh-7, 168 h
[7] = target: Trypsin (Homo sapiens) (UniProt P07477+P07478+P35030); experiment: Inhibition of trypsin (unknown origin) at 1 uM; format: protein assay
[8] = Drug uptake in beagle dog liver by LC/MS/MS analysis; format: ADME, tissue-based, Canis lupus familiaris; conditions: in vivo
[9] = Drug uptake in beagle dog lung by LC/MS/MS analysis; format: ADME, tissue-based, Canis lupus familiaris; conditions: in vivo
[10] = target: Core antigen (Hepatitis B virus) (UniProt Q03732); experiment: Inhibition of hepatitis B virus capsid assembly infected in human HepG2.215 cells assessed as reduction in viral DNA replication measured on day 7 by real time PCR analysis; format: cell-based
Core antigen (Hepatitis B virus), sequence (Q03732 as listed by the source): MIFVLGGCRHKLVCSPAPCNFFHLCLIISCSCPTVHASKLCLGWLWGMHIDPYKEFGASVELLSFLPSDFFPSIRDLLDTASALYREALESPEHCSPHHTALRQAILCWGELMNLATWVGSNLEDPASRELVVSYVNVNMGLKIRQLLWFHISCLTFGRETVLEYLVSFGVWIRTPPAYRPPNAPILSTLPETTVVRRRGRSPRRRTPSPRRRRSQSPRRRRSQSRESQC

[11] = tested on: Mus musculus; experiment: Biotransformation in po dosed mouse assessed as (R)-Ethyl 4-(2-bromo-4-fluorophenyl)-6-(morpholinomethyl)-2-(thiazol-2-yl)-1,4-dihydropyrimidine-5-carboxylate formation; format: ADME, organism-based; conditions: in vivo
[12] = tested on: Mus musculus; experiment: Biotransformation in po dosed mouse assessed as (S)-Ethyl 4-(2-bromo-4-fluorophenyl)-6-(morpholinomethyl)-2-(thiazol-2-yl)-1,4-dihydropyrimidine-5-carboxylate formation; format: ADME, organism-based; conditions: in vivo
[13] = tested on: Canis familiaris; experiment: Biotransformation in po dosed beagle dog assessed as (R)-Ethyl 4-(2-bromo-4-fluorophenyl)-6-(morpholinomethyl)-2-(thiazol-2-yl)-1,4-dihydropyrimidine-5-carboxylate formation; format: ADME, organism-based, Canis lupus familiaris; conditions: in vivo
[14] = tested on: Canis familiaris; experiment: Biotransformation in po dosed beagle dog assessed as (S)-Ethyl 4-(2-bromo-4-fluorophenyl)-6-(morpholinomethyl)-2-(thiazol-2-yl)-1,4-dihydropyrimidine-5-carboxylate formation; format: ADME, organism-based, Canis lupus familiaris; conditions: in vivo
[15] = tested on: Canis familiaris; experiment: Cmax in beagle dog at 5 mg/kg, po by LC/MS/MS analysis; format: ADME, organism-based, Canis lupus familiaris; design: dose 5 mg/kg, route oral; conditions: in vivo
[16] = tested on: Canis familiaris; experiment: Cmax in beagle dog at 15 mg/kg, po by LC/MS/MS analysis; format: ADME, organism-based, Canis lupus familiaris; design: dose 15 mg/kg, route oral; conditions: in vivo
[17] = tested on: Canis familiaris; experiment: Cmax in beagle dog at 45 mg/kg, po by LC/MS/MS analysis; format: ADME, organism-based, Canis lupus familiaris; design: dose 45 mg/kg, route oral; conditions: in vivo
[18] = tested on: Canis familiaris; experiment: Cmax in beagle dog at 15 mg/kg, po for 7 days by LC/MS/MS analysis; format: ADME, organism-based, Canis lupus familiaris; design: dose 15 mg/kg, route oral; conditions: in vivo, 168 h
[19] = AUC (0 to 24 hrs) in beagle dog at 5 mg/kg, iv by LC/MS/MS analysis; format: ADME, organism-based, Canis lupus familiaris; design: dose 5 mg/kg, time < 24 hr, route intravenous; conditions: in vivo
[20] = AUC (0 to 24 hrs) in beagle dog at 5 mg/kg, po by LC/MS/MS analysis; format: ADME, organism-based, Canis lupus familiaris; design: time < 24 hr, dose 5 mg/kg, route oral; conditions: in vivo
[21] = AUC (0 to 24 hrs) in beagle dog at 15 mg/kg, po by LC/MS/MS analysis; format: ADME, organism-based, Canis lupus familiaris; design: dose 15 mg/kg, time < 24 hr, route oral; conditions: in vivo
[22] = AUC (0 to 24 hrs) in beagle dog at 45 mg/kg, po by LC/MS/MS analysis; format: ADME, organism-based, Canis lupus familiaris; design: time < 24 hr, dose 45 mg/kg, route oral; conditions: in vivo
[23] = AUC (0 to 24 hrs) in beagle dog at 15 mg/kg, po for 7 days by LC/MS/MS analysis; format: ADME, organism-based, Canis lupus familiaris; design: time < 24 hr, dose 15 mg/kg, route oral; conditions: in vivo
[24] = Half life in beagle dog at 5 mg/kg, iv by LC/MS/MS analysis; conditions: in vivo
[25] = Half life in beagle dog at 5 mg/kg, po by LC/MS/MS analysis; conditions: in vivo
[26] = Clearance in beagle dog at 5 mg/kg, iv by LC/MS/MS analysis; format: ADME, organism-based, Canis lupus familiaris; conditions: in vivo
[27] = Volume of distribution at steady state in beagle dog at 5 mg/kg, iv by LC/MS/MS analysis; format: ADME, organism-based, Canis lupus familiaris; conditions: in vivo, read-out: Vdss
[28] = Drug uptake in beagle dog heart by LC/MS/MS analysis; format: ADME, tissue-based, Canis lupus familiaris; conditions: in vivo
[29] = Drug uptake in beagle dog brain by LC/MS/MS analysis; format: ADME, tissue-based, Canis lupus familiaris; conditions: in vivo
[30] = target: 72 kDa type IV collagenase (Homo sapiens) (UniProt P08253); experiment: Inhibition of MMP2 (unknown origin) at 1 uM
[31] = species: Homo sapiens; experiment: Inhibition of proteasome (unknown origin) at 1 uM
[32] = target: Disintegrin and metalloproteinase domain-containing protein 17 (Homo sapiens) (UniProt P78536); experiment: Inhibition of TACE (unknown origin) at 1 uM
[33] = target: Low molecular weight phosphotyrosine protein phosphatase (Homo sapiens) (UniProt P24666); experiment: Inhibition of ACP1 (unknown origin) at 1 uM
Low molecular weight phosphotyrosine protein phosphatase (Homo sapiens), sequence (P24666 whole entry): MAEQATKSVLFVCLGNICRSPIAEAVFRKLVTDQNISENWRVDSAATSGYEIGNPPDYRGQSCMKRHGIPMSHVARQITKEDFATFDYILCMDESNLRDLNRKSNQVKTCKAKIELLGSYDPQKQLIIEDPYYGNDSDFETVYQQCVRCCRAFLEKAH

[34] = target: Bile acid receptor (Homo sapiens) (UniProt Q96RI1); experiment: Agonist activity at FXR (unknown origin) at 1 uM
Bile acid receptor (Homo sapiens), sequence (Q96RI1 whole entry): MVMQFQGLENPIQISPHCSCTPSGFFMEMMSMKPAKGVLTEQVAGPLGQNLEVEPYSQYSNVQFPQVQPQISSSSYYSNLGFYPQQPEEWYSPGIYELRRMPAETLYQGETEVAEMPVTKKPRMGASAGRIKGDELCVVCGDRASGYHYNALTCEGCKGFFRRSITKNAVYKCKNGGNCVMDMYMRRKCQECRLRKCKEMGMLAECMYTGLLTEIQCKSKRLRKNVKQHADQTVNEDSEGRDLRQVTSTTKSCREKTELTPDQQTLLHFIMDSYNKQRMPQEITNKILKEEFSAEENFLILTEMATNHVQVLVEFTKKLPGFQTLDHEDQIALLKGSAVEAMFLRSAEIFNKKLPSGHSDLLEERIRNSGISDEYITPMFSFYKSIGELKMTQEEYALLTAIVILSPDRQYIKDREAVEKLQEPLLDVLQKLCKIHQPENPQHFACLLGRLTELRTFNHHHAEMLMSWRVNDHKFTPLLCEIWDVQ

[35] = target: Bile acid receptor (Homo sapiens) (UniProt Q96RI1); experiment: Antagonist activity at FXR (unknown origin) at 1 uM
[36] = target: Oxysterols receptor LXR-beta (Homo sapiens) (UniProt P55055); experiment: Agonist activity at LXRbeta (unknown origin) at 1 uM
Oxysterols receptor LXR-beta (Homo sapiens), sequence (P55055 whole entry): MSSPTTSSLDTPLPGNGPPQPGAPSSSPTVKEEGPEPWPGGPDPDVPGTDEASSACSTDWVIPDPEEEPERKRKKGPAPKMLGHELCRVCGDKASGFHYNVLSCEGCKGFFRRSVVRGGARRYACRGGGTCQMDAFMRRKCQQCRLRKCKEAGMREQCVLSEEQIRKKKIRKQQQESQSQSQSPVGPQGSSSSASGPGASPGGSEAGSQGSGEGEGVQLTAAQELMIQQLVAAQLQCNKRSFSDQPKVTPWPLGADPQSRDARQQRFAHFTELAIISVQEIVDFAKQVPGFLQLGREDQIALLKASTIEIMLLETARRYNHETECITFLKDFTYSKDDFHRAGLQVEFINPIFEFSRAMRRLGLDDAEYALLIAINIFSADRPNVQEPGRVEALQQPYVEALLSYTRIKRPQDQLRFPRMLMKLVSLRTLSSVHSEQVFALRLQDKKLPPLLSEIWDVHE

[37] = target: Oxysterols receptor LXR-beta (Homo sapiens) (UniProt P55055); experiment: Antagonist activity at LXRbeta (unknown origin) at 1 uM
[38] = target: Sodium/potassium-transporting ATPase (Homo sapiens) (UniProt P05023+P14415+P05026+P50993+P54709+P13637+Q13733+P54710); experiment: Inhibition of Sodium/potassium-transporting ATPase (unknown origin) at 1 uM; format: protein-complex assay
[39] = target: Prostaglandin G/H synthase 1 (Homo sapiens) (UniProt P23219); experiment: Inhibition of COX-1 (unknown origin) at 1 uM
[40] = target: NAD-dependent protein deacetylase sirtuin-1 (Homo sapiens) (UniProt Q96EB6); experiment: Inhibition of SIRT1 (unknown origin) at 1 uM
[41] = species: Homo sapiens; experiment: Inhibition of lipase (unknown origin) at 1 uM
[42] = target: Nitric oxide synthase, inducible (Homo sapiens) (UniProt P35228); experiment: Inhibition of iNOS (unknown origin) at 1 uM
Nitric oxide synthase, inducible (Homo sapiens), sequence (P35228 whole entry): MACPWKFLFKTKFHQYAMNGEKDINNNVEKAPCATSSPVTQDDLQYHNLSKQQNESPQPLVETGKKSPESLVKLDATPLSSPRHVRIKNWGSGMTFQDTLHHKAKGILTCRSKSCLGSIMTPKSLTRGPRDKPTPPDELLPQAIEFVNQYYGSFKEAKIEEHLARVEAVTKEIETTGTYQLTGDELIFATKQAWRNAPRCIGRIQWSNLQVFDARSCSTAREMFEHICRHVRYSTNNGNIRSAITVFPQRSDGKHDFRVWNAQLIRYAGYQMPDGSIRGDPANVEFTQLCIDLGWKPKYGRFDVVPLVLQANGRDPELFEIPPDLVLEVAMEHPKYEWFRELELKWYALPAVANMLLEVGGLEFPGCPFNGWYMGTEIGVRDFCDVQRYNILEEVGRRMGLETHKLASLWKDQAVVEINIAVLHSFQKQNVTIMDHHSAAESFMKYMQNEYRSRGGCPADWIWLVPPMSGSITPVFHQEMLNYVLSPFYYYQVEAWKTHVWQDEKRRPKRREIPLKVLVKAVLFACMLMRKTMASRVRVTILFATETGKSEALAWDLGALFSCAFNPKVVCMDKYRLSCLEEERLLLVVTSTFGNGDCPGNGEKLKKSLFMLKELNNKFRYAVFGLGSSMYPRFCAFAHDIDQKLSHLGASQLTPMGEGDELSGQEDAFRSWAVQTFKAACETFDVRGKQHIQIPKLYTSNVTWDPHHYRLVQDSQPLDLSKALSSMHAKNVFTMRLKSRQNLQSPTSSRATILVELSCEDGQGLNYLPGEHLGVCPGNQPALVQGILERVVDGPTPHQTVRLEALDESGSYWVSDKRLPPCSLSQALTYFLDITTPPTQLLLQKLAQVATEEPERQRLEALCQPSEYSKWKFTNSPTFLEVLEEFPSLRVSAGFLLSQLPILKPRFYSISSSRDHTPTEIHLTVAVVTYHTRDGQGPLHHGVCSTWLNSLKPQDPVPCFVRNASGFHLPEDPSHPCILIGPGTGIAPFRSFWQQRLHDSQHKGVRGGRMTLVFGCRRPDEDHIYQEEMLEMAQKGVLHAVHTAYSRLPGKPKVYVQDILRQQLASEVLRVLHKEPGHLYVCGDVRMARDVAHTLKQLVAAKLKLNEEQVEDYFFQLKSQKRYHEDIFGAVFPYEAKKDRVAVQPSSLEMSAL

[43] = species: Homo sapiens; experiment: Inhibition of neural phospholipase (unknown origin) at 1 uM
[44] = target: RAC-alpha serine/threonine-protein kinase (Homo sapiens) (UniProt P31749); experiment: Inhibition of AKT1 (unknown origin) at 1 uM
[45] = target: Calcium/calmodulin-dependent protein kinase type II subunit delta (Homo sapiens) (UniProt Q13557); experiment: Inhibition of CAMK2D (unknown origin) at 1 uM
Calcium/calmodulin-dependent protein kinase type II subunit delta (Homo sapiens), sequence (Q13557 whole entry): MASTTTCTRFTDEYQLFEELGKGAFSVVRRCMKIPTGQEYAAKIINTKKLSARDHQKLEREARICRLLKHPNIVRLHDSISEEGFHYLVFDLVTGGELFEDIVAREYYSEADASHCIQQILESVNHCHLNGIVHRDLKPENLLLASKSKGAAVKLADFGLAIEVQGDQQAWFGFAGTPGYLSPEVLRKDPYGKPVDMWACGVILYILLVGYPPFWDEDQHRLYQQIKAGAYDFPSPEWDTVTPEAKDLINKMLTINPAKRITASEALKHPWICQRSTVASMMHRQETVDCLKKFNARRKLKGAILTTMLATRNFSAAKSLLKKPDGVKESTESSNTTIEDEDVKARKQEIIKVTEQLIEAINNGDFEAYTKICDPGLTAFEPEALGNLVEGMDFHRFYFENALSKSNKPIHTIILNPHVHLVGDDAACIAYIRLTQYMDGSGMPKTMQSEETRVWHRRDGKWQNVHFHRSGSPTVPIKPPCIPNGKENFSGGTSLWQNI

[46] = target: Death-associated protein kinase 1 (Homo sapiens) (UniProt P53355); experiment: Inhibition of DAPK1 (unknown origin) at 1 uM
[47] = target: Mitogen-activated protein kinase 3 (Homo sapiens) (UniProt P27361); experiment: Inhibition of ERK1 (unknown origin) at 1 uM
Mitogen-activated protein kinase 3 (Homo sapiens), sequence (P27361 whole entry): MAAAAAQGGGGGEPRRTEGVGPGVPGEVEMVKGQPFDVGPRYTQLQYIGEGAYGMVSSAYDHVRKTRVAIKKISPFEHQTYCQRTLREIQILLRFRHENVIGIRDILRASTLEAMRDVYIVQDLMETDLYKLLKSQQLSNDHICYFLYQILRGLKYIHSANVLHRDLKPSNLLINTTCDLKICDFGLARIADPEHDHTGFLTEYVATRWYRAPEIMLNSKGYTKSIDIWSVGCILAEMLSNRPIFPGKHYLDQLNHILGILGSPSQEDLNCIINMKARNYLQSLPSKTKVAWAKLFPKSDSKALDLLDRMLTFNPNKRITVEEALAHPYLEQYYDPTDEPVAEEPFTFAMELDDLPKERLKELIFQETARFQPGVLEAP

[48] = target: Protein kinase C alpha type (Homo sapiens) (UniProt P17252); experiment: Inhibition of PKCalpha (unknown origin) at 1 uM
[49] = target: Tyrosine-protein kinase ABL1 (Homo sapiens) (UniProt P00519); experiment: Inhibition of ABL1 (unknown origin) at 1 uM
[50] = target: Epidermal growth factor receptor (Homo sapiens) (UniProt P00533); experiment: Inhibition of EGFR (unknown origin) at 1 uM
[51] = target: Receptor-type tyrosine-protein kinase FLT3 (Homo sapiens) (UniProt P36888); experiment: Inhibition of FLT3 (unknown origin) at 1 uM
Receptor-type tyrosine-protein kinase FLT3 (Homo sapiens), sequence (P36888 whole entry): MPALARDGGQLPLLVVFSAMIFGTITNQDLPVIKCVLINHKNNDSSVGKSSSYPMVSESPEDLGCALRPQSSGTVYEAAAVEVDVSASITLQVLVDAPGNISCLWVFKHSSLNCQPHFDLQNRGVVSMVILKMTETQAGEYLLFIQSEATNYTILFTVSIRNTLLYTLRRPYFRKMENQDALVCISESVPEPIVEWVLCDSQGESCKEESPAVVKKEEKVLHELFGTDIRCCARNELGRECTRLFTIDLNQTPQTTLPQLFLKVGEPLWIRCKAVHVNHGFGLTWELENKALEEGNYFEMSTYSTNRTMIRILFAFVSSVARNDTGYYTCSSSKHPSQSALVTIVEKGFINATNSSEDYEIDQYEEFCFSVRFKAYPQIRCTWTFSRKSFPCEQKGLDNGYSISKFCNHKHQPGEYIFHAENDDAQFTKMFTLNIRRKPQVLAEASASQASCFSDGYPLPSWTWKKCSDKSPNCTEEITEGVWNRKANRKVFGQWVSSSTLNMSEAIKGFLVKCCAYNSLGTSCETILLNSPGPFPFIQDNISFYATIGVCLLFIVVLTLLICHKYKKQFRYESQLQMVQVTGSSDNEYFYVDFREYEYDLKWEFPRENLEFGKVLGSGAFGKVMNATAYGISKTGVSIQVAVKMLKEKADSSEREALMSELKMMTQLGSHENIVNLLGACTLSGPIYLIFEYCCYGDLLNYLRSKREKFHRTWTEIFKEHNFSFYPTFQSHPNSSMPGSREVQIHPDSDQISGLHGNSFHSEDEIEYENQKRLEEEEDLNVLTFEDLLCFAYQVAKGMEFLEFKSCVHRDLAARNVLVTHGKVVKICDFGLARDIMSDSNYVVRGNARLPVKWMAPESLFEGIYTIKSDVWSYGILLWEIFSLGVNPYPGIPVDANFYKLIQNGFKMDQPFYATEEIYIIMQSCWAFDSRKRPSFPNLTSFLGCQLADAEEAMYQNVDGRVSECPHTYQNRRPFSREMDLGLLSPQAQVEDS

[52] = target: Tyrosine-protein kinase JAK2 (Homo sapiens) (UniProt O60674); experiment: Inhibition of JAK2 (unknown origin) at 1 uM
[53] = target: Proto-oncogene tyrosine-protein kinase Src (Homo sapiens) (UniProt P12931); experiment: Inhibition of SRC (unknown origin) at 1 uM
[54] = target: Tyrosine-protein kinase ZAP-70 (Homo sapiens) (UniProt P43403); experiment: Inhibition of ZA70 (unknown origin) at 1 uM
[55] = target: Adenosine receptor A1 (Homo sapiens) (UniProt P30542); experiment: Inhibition of adenosine receptor A1 (unknown origin) at 1 uM
[56] = target: Interleukin-8 receptors, CXCR1/CXCR2 (Homo sapiens) (UniProt P25025+P25024); experiment: Inhibition of CXCR1/2 (unknown origin) at 1 uM; format: protein assay
[57] = target: D(1A) dopamine receptor (Homo sapiens) (UniProt P21728); experiment: Inhibition of dopamine D1 receptor (unknown origin) at 1 uM
[58] = target: Platelet-activating factor receptor (Homo sapiens) (UniProt P25105); experiment: Inhibition of platelet-activating factor receptor (unknown origin) at 1 uM
[59] = target: Sodium-dependent serotonin transporter (Homo sapiens) (UniProt P31645); experiment: Inhibition of 5-Serotonin transporter (unknown origin) at 1 uM
Sodium-dependent serotonin transporter (Homo sapiens), sequence (P31645 whole entry, looked up): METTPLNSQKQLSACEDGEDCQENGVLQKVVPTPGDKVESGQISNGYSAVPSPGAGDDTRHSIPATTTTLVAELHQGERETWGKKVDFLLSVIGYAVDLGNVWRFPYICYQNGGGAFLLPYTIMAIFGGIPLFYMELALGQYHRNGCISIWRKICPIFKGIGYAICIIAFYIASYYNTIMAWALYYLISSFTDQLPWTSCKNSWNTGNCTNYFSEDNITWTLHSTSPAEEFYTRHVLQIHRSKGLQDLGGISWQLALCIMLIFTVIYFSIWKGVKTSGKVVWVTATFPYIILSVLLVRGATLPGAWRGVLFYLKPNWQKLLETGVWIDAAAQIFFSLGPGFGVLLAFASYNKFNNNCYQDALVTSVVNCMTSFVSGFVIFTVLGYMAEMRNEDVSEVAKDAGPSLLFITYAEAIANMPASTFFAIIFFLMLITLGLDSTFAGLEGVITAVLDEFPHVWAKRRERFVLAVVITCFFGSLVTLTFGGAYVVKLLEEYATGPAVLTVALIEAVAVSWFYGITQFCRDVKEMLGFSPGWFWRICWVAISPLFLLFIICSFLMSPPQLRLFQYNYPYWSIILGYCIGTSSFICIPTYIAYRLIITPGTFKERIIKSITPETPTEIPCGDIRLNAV

[60] = species: Homo sapiens; experiment: Inhibition of calcium channel (unknown origin) at 1 uM
[61] = Toxicity in beagle dog administered via oral gavage for 28 days; format: organism-based, Canis lupus familiaris; conditions: in vivo
[62] = in vivo; conditions: beagle, dog, po, 15 mg/kg
Description: Half life in beagle dog at 15 mg/kg, po by LC/MS/MS analysis

[63] = in vivo; conditions: beagle, dog, po, 45 mg/kg
Description: Half life in beagle dog at 45 mg/kg, po by LC/MS/MS analysis

[64] = in vivo; conditions: beagle, dog, po, 15 mg/kg; remark: listed apart in the source
Description: Half life in beagle dog at 15 mg/kg, po for 7 days by LC/MS/MS analysis

[65] = in vivo; conditions: beagle, dog, po, 5 mg/kg

SMILES: Cc1cn([C@@H]2C[C@@H](O)[C@H](CO)O2)c(=O)[nH]c1=O [TELBIVUDINE]
- CC50 at 120 h [1]: > 200 µM
- EC50 [2]: > 20 µM
- EC50 [3]: > 20 µM
- EC50 [4]: > 20 µM
- EC50 [5]: > 20 µM
- EC50 [6]: 0.569 µM

SMILES: CCOC(=O)C1=C(CN2CCOCC2)NC(c2nccs2)=NC1c1ccc(F)cc1Br (stereo not given)
- inhibition [7]: 4%
- Drug uptake [8]: Active
- Drug uptake [9]: Not Active
- EC90 [10]: 0.006 µM
- Drug metabolism [11]: Metabolite_Notdetected
- Drug metabolism [12]: Metabolite_Notdetected
- Drug metabolism [13]: Metabolite_Notdetected
- Drug metabolism [14]: Metabolite_Notdetected
- Cmax [15]: 136 ng/mL
- Cmax [16]: 698 ng/mL
- Cmax [17]: 1180 ng/mL
- Cmax [18]: 524 ng/mL
- AUC(0-t) at 24 h [19]: 4350 ng·h/mL
- AUC(0-t) at 24 h [20]: 695 ng·h/mL
- AUC(0-t) at 24 h [21]: 2760 ng·h/mL
- AUC(0-t) at 24 h [22]: 8470 ng·h/mL
- AUC at 24 h [23]: 2830 ng·h/mL
- half-life [24]: 9.85 h
- half-life [25]: 6.91 h
- clearance [26]: 17.9 mL/min/kg
- Vd [27]: 6.86 L/kg
- Drug uptake [28]: Not Active
- Drug uptake [29]: Not Active
- inhibition [30]: -3%
- inhibition [31]: 2%
- inhibition [32]: 2%
- inhibition [33]: -4%
- Activity [34]: 2%
- inhibition [35]: 4%
- Activity [36]: 5%
- inhibition [37]: -7%
- inhibition [38]: 4%
- inhibition [39]: -10%
- inhibition [40]: 7%
- inhibition [41]: 4%
- inhibition [42]: 7%
- inhibition [43]: 9%
- inhibition [44]: -3%
- inhibition [45]: 11%
- inhibition [46]: 3%
- inhibition [47]: 7%
- inhibition [48]: 1%
- inhibition [49]: 2%
- inhibition [50]: 0%
- inhibition [51]: 4%
- inhibition [52]: 25%
- inhibition [53]: -3%
- inhibition [54]: 9%
- inhibition [55]: 1%
- inhibition [56]: 8%
- inhibition [57]: 7%
- inhibition [58]: 10%
- inhibition [59]: -1%
- inhibition [60]: -6%
- NOAEL at 672 h [61]: 10 mg/kg
- half-life [62]: 7.32 h
- half-life [63]: 6.29 h
- half-life at 168 h [64]: 9.47 h
- bioavailability [65]: 15.6%
